{
  "source": "patent US8796463B2",
  "about": "(priority 2009, dated 2014)",
  "key": {"[1]": {"experiment": "log P by HPLC on reversed phase columns (EEC directive 79/831 Annex V.A8)", "type": "physicochemical", "settings": "for logp: pH 2.7, 0.1% formic acid in water / acetonitrile gradient; for chromatographic logP: reversed phase HPLC column, pH 2.7, formic acid eluent, reported in preparation example, read-out: log P(HCOOH)", "procedure": "Measurement of log P values was performed according EEC directive 79/831 Annex V.A8 by HPLC (High Performance Liquid Chromatography) on reversed phase columns with the following method:\nmeasurement of LC-MS was done at pH 2.7 with 0.1% formic acid in water and with acetonitrile (contains 0.1% formic acid) as eluent with a linear gradient from 10% acetonitrle to 95% acetonitrile.\nCalibration was done with not branched alkan2-ones (with 3 to 16 carbon atoms) with known log P-values (measurement of log P values using retention times with linear interpolation between successive alkanones). lambda-maX-values were determined using UV-spectra from 200 nm to 400 nm and the peak values of the chromatographic signals."}, "[2]": {"system": "Phytophthora infestans", "type": "in vivo", "settings": "tomato, preventive spray, 100 ppm of active ingredient, evaluated 7 days after inoculation"}, "[3]": {"system": "Plasmopara viticola", "experiment": "Plasmopara test (grapevines) / preventive", "type": "in vivo", "settings": "preventive spray, 10 ppm of active ingredient, evaluated 6 days after inoculation", "procedure": "Plasmopara Test (Grapevines)/Preventive\nTo produce a suitable preparation of active compound, 1 part by weight of active compound is mixed with the stated amounts of solvent and emulsifier, and the concentrate is diluted with water to the desired concentration.\nTo test for preventive activity, young plants are sprayed with the preparation of active compound at the stated rate of application. After the spray coating has dried on, the plants are inoculated with an aqueous spore suspension of Plasmopara viticola and then remain for 1 day in an incubation cabinet at approximately 20° C. and a relative atmospheric humidity of 100%. The plant is subsequently placed for 4 days in a greenhouse at approximately 21° C. and a relative atmospheric humidity of approximately 90%. The plants are then misted and placed for 1 day in an incubation cabinet.\nThe test is evaluated 6 days after the inoculation. 0% means an efficacy which corresponds to that of the untreated control, while an efficacy of 100% means that no disease is observed."}, "[4]": {"system": "Pythium ultimum", "experiment": "Pythium test (cotton) / seed treatment", "type": "in vivo", "settings": "10 g/dt seed of active ingredient, emerged seedlings after 7 days", "procedure": "Pythium Test (Cotton)/Seed Treatment\nThe test is performed under greenhouse conditions.\nCotton seeds, treated with the active compound or compound combinations, solved in N-methyl-2-pyrrolidon and diluted with water to the desired dosages, were sown in 6*6 cm pots containing 4 cm of a 1:1 mix of steamed field soil and sand.\nPerlite was incubated with mycelium fragments of Pythium ultimum. 1 ml of infected perlite was scattered between the treated cotton seeds. Seeds were then covered by light expanded clay aggregate. Pots were incubated in the greenhouse 7 days at 20° C. and 80% relative humidity.\nAssessment consisted of counting of emerged seedlings. 0% means an efficacy which corresponds to that of the control, while an efficacy of 100% means that all seedlings have emerged."}},
  "note": "Values joined by “and” are separate entries in the source; they are usually repeats but may differ in a detail not shown here. Equal entries are not always repeated.",
  "data": [
    {"smiles": "Cn1nnnc1C(=NOCc1cccc(NC(=O)C2COc3ccccc3O2)n1)c1ccccc1", "note": "(stereo not drawn) [Example 9]", "values": [
      {"measurement": "logp", "setting": "[1]", "result": 3.69},
      {"measurement": "Efficacy %", "setting": "[2]", "result": 85, "unit": "%"},
      {"measurement": "Efficacy %", "setting": "[3]", "result": 97, "unit": "%"}
    ]},
    {"smiles": "Cn1nnnc1C(=NOCc1csc(NC(=O)C2COc3ccccc3O2)n1)c1ccccc1", "note": "(stereo not drawn) [Example 11]", "values": [
      {"measurement": "logp", "setting": "[1]", "result": 3.46},
      {"measurement": "Efficacy %", "setting": "[2]", "result": 95, "unit": "%"},
      {"measurement": "Efficacy %", "setting": "[4]", "result": 77, "unit": "%"},
      {"measurement": "Efficacy %", "setting": "[3]", "result": 98, "unit": "%"}
    ]},
    {"smiles": "Cn1nnnc1C(=NOCc1csc(NC(=O)C2Cc3ccccc3O2)n1)c1ccccc1", "note": "(stereo not drawn) [Example 42]", "values": [
      {"measurement": "logp", "setting": "[1]", "result": 3.39},
      {"measurement": "Efficacy %", "setting": "[2]", "result": 89, "unit": "%"},
      {"measurement": "Efficacy %", "setting": "[3]", "result": 100, "unit": "%"}
    ]},
    {"smiles": "Cc1ccc2c(c1)OC(C(=O)Nc1cccc(CON=C(c3ccccc3)c3nnnn3C)n1)CO2", "note": "(stereo not drawn) [Example 7]", "values": [
      {"measurement": "logp", "setting": "[1]", "result": 4.03},
      {"measurement": "Efficacy %", "setting": "[2]", "result": 95, "unit": "%"},
      {"measurement": "Efficacy %", "setting": "[3]", "result": 75, "unit": "%"}
    ]},
    {"smiles": "Cc1nnnn1C(=NOCc1cccc(NC(=O)C2Cc3ccccc3O2)n1)c1ccccc1", "note": "(stereo not drawn) [Example 56]", "values": [
      {"measurement": "logp", "setting": "[1]", "result": 3.71},
      {"measurement": "Efficacy %", "setting": "[2]", "result": 100, "unit": "%"},
      {"measurement": "Efficacy %", "setting": "[3]", "result": 85, "unit": "%"}
    ]},
    {"smiles": "COc1ccc2c(c1)OC(C(=O)Nc1nc(CON=C(c3ccccc3)c3nnnn3C)cs1)CC2", "note": "(stereo not drawn) [Example 40]", "values": [
      {"measurement": "logp", "setting": "[1]", "result": 3.78},
      {"measurement": "Efficacy %", "setting": "[2]", "result": 98, "unit": "%"},
      {"measurement": "Efficacy %", "setting": "[3]", "result": 96, "unit": "%"}
    ]},
    {"smiles": "Cn1nnnc1C(=NOCc1cccc(NC(=O)C2CCc3ccccc3O2)n1)c1ccccc1", "note": "(stereo not drawn) [Example 5]", "values": [
      {"measurement": "logp", "setting": "[1]", "result": 4.01},
      {"measurement": "Efficacy %", "setting": "[2]", "result": 95, "unit": "%"},
      {"measurement": "Efficacy %", "setting": "[3]", "result": 89, "unit": "%"}
    ]},
    {"smiles": "Cc1cccc2c1OC(C(=O)Nc1cccc(CON=C(c3ccccc3)c3nnnn3C)n1)CO2", "note": "(stereo not drawn) [Example 8]", "values": [
      {"measurement": "logp", "setting": "[1]", "result": 4.08},
      {"measurement": "Efficacy %", "setting": "[2]", "result": 95, "unit": "%"},
      {"measurement": "Efficacy %", "setting": "[3]", "result": 87, "unit": "%"}
    ]},
    {"smiles": "Cn1nnnc1C(=NOCc1cccc(NC(=O)C2Cc3ccccc3O2)n1)c1ccccc1", "note": "(stereo not drawn) [Example 41, N-{6-[({[(1-methyl-1H-tetrazol-5-yl)(phenyl)methylene]amino}oxy)methyl]pyridin-2-yl}-2,3-dihydro-1-benzofuran-2-carboxamide]", "values": [
      {"measurement": "chromatographic logP", "setting": "[1]", "result": 3.67},
      {"measurement": "Efficacy %", "setting": "[2]", "result": 89, "unit": "%"},
      {"measurement": "Efficacy %", "setting": "[4]", "result": 92, "unit": "%"},
      {"measurement": "Efficacy %", "setting": "[3]", "result": "97% and 91%"}
    ]},
    {"smiles": "Cn1nnnc1C(=NOCc1csc(NC(=O)C2CCc3ccccc3O2)n1)c1ccccc1", "note": "(stereo not drawn) [Example 10, N-{4-[({[(1-methyl-1H-tetrazol-5-yl)(phenyl)methylene]amino}oxy)methyl]-1,3-thiazol-2-yl}chromane-2-carboxamide]", "values": [
      {"measurement": "chromatographic logP", "setting": "[1]", "result": 3.78},
      {"measurement": "Efficacy %", "setting": "[2]", "result": 100, "unit": "%"},
      {"measurement": "Efficacy %", "setting": "[4]", "result": 86, "unit": "%"},
      {"measurement": "Efficacy %", "setting": "[3]", "result": 100, "unit": "%"}
    ]},
    {"smiles": "Cc1nnnn1C(=NOCc1csc(NC(=O)C2Cc3ccccc3O2)n1)c1ccccc1", "note": "(stereo not drawn) [Example 45]", "values": [
      {"measurement": "logp", "setting": "[1]", "result": 3.44},
      {"measurement": "Efficacy %", "setting": "[2]", "result": 98, "unit": "%"},
      {"measurement": "Efficacy %", "setting": "[3]", "result": 96, "unit": "%"}
    ]},
    {"smiles": "Cn1nnnc1C(=NOCc1cccc(NC(=O)C2Oc3ccccc3O2)n1)c1ccccc1", "note": "[Example 60]", "values": [
      {"measurement": "logp", "setting": "[1]", "result": 3.44},
      {"measurement": "Efficacy %", "setting": "[2]", "result": 95, "unit": "%"},
      {"measurement": "Efficacy %", "setting": "[3]", "result": 97, "unit": "%"}
    ]}
  ]
}
